Assay results: patent US10167326B2, “Alpha-fetoprotein “ring and tail” peptides” (ALBANY MEDICAL COLLEGE, priority 2010, dated 2019)
“Also recorded” adds a separate entry of the source. Non-standard residues stand in square brackets, D forms with d. Residues, ends and D or L forms follow the SMILES beside them. Hyp = O=C(O)[C@@H]1C[C@@H](O)CN1

Tests used:
c-erb2 = conditions: after stimulation by E2 or EGF in MCF-7 cells; cited from earlier work
p21Cip1 = conditions: cited from earlier work
[1] = test system: E2-stimulated immature mouse uterine growth; experiment: immature mouse uterine growth assay (inhibition of E2-stimulated uterine growth); assay type: in vivo
Experimental: Four cyclic peptides of decreasing ring size (Table 1) were synthesized and were assessed for antiestrogenic activity using the immature mouse uterine assay. Negative control mice received saline alone. Positive control mice received E2 alone. AFPep was used as a positive control peptide and cyclic Scr was used as a peptide control. Mice were injected intraperitoneally (i.p.) with each of these peptides at a dose of 1 μg/mouse. One hour later mice received 0.5 ug 17β-estradiol (E2) i.p. Twenty-two hours later uteri were dissected, weighed, and normalized to body weight. The results are reported as mean±S.E (n=5) for four independent experiments.
(§1) A ‘tail’ was attached to a nine-amino acid ring and included 1 or 2 amino acids defined as hydrophilic or hydrophobic based on the nature of their side-chains. Tails comprising the following amino acid(s): serine (S), tyrosine (Y), […], glutamic acid (E), phenylalanine-serine (FS) and tyrosine-isoleucine (YI) represent hydrophilic tails and tails comprising the following amino acid(s), phenylalanine (F), isoleucine (I) and phenylalanine-isoleucine (FI) are hydrophobic tails. All peptides were administered at a dose of 1 μg/mouse intraperitoneally or 10 μg/mouse by oral gavage. Values are presented as mean±S.E. (n=5). In culture, T47D cells were treated with each peptide at a concentration of 1 μM. Values are presented as mean±S.E (n=6). […] Wilcoxon Rank Sum Test.
(§2) All peptides were administered at a dose of 1 μg/mouse intraperitoneally or 10 μg/mouse by oral gavage. Values are presented as mean±S.E (n=5). In culture, T47D cells were treated with each peptide at a concentration of 1 μM. Values are presented as mean±S.E (n=6). […] Wilcoxon Rank Sum Test.
To evaluate peptide-induced inhibition by the peptide of the present invention of estrogen-stimulated proliferation of normal tissue, the immature mouse uterine growth assay was utilized. Briefly, 13-15 day-old Swiss/Webster female mice, 6-8 g in body weight, were distributed into treatment groups of 5 mice per group so that each group contained animals of the same range of body weight. The peptide of the invention was injected i.p., s.c., or p.o. into the mice. One hour later, estradiol (E2) or vehicle control for E2 was injected i.p. Twenty-two hours after the second injection, uteri were harvested, trimmed free of mesenteries, and immediately weighed. The uterine weights were normalized to mouse body weights to compensate for differences in body weight among litters of the same age. Experiments employed a minimum of five mice per group and the mean normalized uterine weight±SE for each group was calculated. Percent growth inhibition in a test group was calculated from normalized uterine wet weights as described below.
The ability to inhibit E2-stimulated growth of normal mouse uterus was used as a screening assay for biological activity of AFPep analogs. In general, inhibitory activity ≥20% is considered to be biologically significant. Each analog's inhibitory effect on E2-stimulated growth was compared to AFPep (a positive control) and to PGVGQ (SEQ ID NO: 51)(a negative control). PGVGQ (SEQ ID NO: 51 amino acids 478-482 of AFP) is a portion of the primary structure of AFP near to the anti-cancer active site of AFP and is comprised of amino acids (P, V, and G) that are important components of AFPep.

[2] = test system: T47D human breast cancer cells; experiment: T47D cell proliferation assay in the presence of E2; assay type: cell-based
Experimental: Anticancer activity of the cyclic peptides was also evaluated using the T47D cell proliferation assay. T47D cells were cultured on collagen-IV coated 24-well plates and treated with each of above peptides in the presence of E2. Final peptide concentrations of each peptide were 10^−6 M and final E2 concentration was 1 nM. Values are reported as mean±SEM (n=6) of four independent experiments. […] One-way ANOVA followed by Tukey's multiple comparison test. p≤0.05.
as §1, §2

estrogen receptor = target: T1, estrogen receptor (Homo sapiens, UniProt P03372); conditions: cited from earlier work
T1 sequence (P03372 1-595): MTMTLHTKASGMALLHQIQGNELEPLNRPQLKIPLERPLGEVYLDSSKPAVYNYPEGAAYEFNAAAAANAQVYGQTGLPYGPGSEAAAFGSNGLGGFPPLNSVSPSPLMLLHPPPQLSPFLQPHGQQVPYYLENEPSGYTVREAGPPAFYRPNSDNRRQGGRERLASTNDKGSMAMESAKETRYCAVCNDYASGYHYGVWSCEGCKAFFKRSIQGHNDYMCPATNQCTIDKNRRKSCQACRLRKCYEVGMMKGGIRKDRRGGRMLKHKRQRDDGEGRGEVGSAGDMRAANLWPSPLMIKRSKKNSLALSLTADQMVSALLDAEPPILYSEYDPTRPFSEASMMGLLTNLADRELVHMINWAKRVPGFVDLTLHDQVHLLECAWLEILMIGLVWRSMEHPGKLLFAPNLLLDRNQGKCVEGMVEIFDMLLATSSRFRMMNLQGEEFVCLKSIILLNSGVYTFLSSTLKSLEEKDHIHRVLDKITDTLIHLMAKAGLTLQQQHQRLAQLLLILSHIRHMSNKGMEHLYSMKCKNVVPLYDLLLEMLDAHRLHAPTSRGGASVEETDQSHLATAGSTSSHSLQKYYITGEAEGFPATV

p53 = conditions: cited from earlier work
[3] = test system: T47D human breast cancer cells; experiment: T47D cell proliferation assay in the presence of E2; assay type: cell-based; conditions: different concentrations in vitro (FIG. 7)
[4] = test system: estrogen receptor phosphorylation at serine-118; conditions: cited from earlier work

CC(C)[C@@H]1NC(=O)[C@@H]2C[C@@H](O)CN2C(=O)[C@H]([C@@H](C)O)NC(=O)[C@H](CCCCN)NC(=O)[C@H](CCC(=O)O)NC(=O)[C@H](CC(N)=O)NC(=O)CNC(=O)[C@@H]2C[C@@H](O)CN2C(=O)[C@H](CC(N)=O)NC1=O [AFPep, cyclo[EKTOVNOGN], reference compound] (cyclo(EKT[Hyp]VN[Hyp]GN))
transactivation of c-erb2 leading dephosphorylated ERK1/2 (c-erb2): prevent the transactivation of c-erb2 | nuclear p21Cip1 activation (p21Cip1): increases | antiestrogenic activity of cyclic analogs of different ring size (uterine growth inhibition) ([1]; 1 μg/mouse i.p. (FIG. 5A)): significantly better inhibition of E2-stimulated growth in vivo and in vitro than the other analogs | uterine growth inhibition dose response of AFPep combined with antagonist analog ([1]; combination of AFPep and ring and tail antagonist with disrupted pharmacophore and hydrophilic tail (FIG. 11, 12)): restored by addition of the antagonist analog; also recorded: can be overcome by using a combination of AFPep and an analog with a hydrophilic tail; also recorded: sigmoidal dose range curve | inhibition of E2-stimulated uterine growth, dose response profile ([1]; over a number of doses (FIG. 6)): significantly inhibited E2-stimulated uterine growth to a dose of 10 μg and then loses its effectiveness at higher doses | Inhibition ± S.E, % T47D cell proliferation ([2]; peptide 1 μM, E2-stimulated, mean±S.E (n=6), * p<0.05 vs E2 alone): 51 ± 4* % | anticancer activity of cyclic analogs of different ring size (T47D proliferation inhibition) ([2]; peptide 10^−6 M, E2 1 nM (FIG. 5B)): significantly different from the other analogs; also recorded: significantly better inhibition of E2-stimulated growth in vivo and in vitro than the other analogs | binding to the E2-binding site of the estrogen receptor (estrogen receptor): does not bind | serine-15 phosphorylation on p53 (p53): significantly increased | inhibition of E2-stimulated T47D human breast cancer cell growth, concentration response profile [3]: inhibited E2-stimulated T47D cell growth up to a concentration of 10^−6M and then loss its effectiveness at higher concentrations | E2-induced estrogen receptor phosphorylation at serine-118 [4]: significantly inhibited
